Source: patent US9617262B2, “Antibacterial cyclopental[C]pyrrole substituted 3,4-dihydro-1H-[1,8]naphthyridinones” (Janssen Sciences Ireland UC, priority 2011, dated 2017)
In brackets after ≈: the same amount, converted by molar mass.

Columns and labels:
S. aureus = test: Antibacterial susceptibility testing: IC90 determination with 10% human serum (STA + 10% HS); assay type: cell-based, Staphylococcus aureus; details: human serum at a final concentration of 10%
Procedure: (§1) The following bacteria were used: Staphylococcus aureus ATCC 29213, methicillin-resistant Staphylococcus aureus (MRSA) ATCC 700788 and Escherichia coli ATCC 35218. The bacteria used in this study were grown overnight in flasks containing 100 ml Mueller-Hinton broth (Difco cat. nr. 0757-17) in sterile de-ionized water, with shaking, at 37° C. Stocks were store at −70° C. until use.
(§2) Bacteria were incubated on a tryptic soy agar plate containing 5% sheep blood (Becton Dickinson cat. nr. 254053) for 18-24 hours at 35° C. in aerobic conditions (first passage). For the second passage, fresh Mueller-Hinton broth is inoculated with 5-10 colonies and grown overnight at 35° C. until turbidity (reaching log-phase) in aerobic conditions is reached. The bacterial suspension is then adjusted to 0.5 McFarland density and further diluted 1:100 in Mueller Hinton broth medium. This is used as inoculum.
(§3) MIC assays were performed by the broth microdilution method in a 96-well format (flat-bottom microtitre plates) with a final volume of 0.1 ml Mueller Hinton broth containing two-fold serial dilutions of compounds and inoculated with 5×10^5 CFU/ml of bacteria (standard inoculum size according to CLSI guidelines). Inhibitors are typically varied over the range of 63 to 0.49 μM. The final DMSO concentration in the assay was 1.25% (maximum tolerable DMSO concentration=6%). In the assays where the effect of human serum on the activity of the compounds against S. aureus was tested, human serum was added at a final concentration of 10%. The plates were incubated at 35° C. for 16-20 hours. At the end of incubation the bacterial growth was quantified fluorometrically. For this, resazurin was added to all wells and the plates were re-incubated. The incubation time is dependent on the type of bacteria. A change in color from blue to pink indicated the growth of bacteria. The fluorescence was read in computer-controlled fluorometer (Fluoroskan Ascent FL, Labsystems) at an excitation wavelength 540 nm and an emission wavelength of 590 nm. The % growth inhibition achieved by the compounds was calculated according to standard methods. The IC90 (expressed in μg/ml) was defined as the 90% inhibitory concentration for bacterial growth. A panel of reference compounds were simultaneously tested for QC approval.
The results are depicted in the table D2 below (STA+10% HS).

[1] = system: Staphylococcus aureus ATCC 29213; test: Antibacterial susceptibility testing: IC90 determination (STA); assay type: cell-based; details: STA ATCC 29213, 90% inhibitory concentration for bacterial growth
Procedure: as §1, §2, §3

[2] = In vivo pharmacokinetic and oral bioavailability; details: male Swiss mice; for C0: 20% HP-β-CD solution
Procedure: The in vivo pharmacokinetics and oral bioavailability of the compound of the examples was/is investigated in male Swiss mice (fed) following single intravenous (i.v.) bolus and oral (p.o.) administration. For the i.v. and p.o. solution formulations, the compound was/is dissolved in a 20% HP-β-CD solution. The pH of the formulations was/is around pH 4. All i.v. formulations were isotonic.

[3] = target: S. aureus ATCC 29213 FabI (Staphylococcus aureus (strain MRSA252), UniProt Q6GI75); test: Staphylococcus aureus FabI enzyme inhibition assay; assay type: biochemical; details: pH 6.5, 30 minutes at room temperature
Procedure: FabI enzyme inhibition assays were carried out in half-area, 384-well microtitre plates. Compounds were evaluated in 40-μl assay mixtures containing 100 mM NaADA, pH 6.5 (ADA=N-[2-acetamido]-2iminodiacetic acid), 250 μM crotonoyl-CoA, 625 μM NADH and 50 μg/ml S. aureus ATCC 29213 FabI. Inhibitors were typically varied over the range of 50 to 0.39 μM. The reaction mixtures were incubated for 30 minutes at room temperature and the reaction was stopped by adding 200 mM Tris buffer (pH 9.0) to create a pH-shift. The consumption of NADH was monitored by measuring the change in absorbance at […]. By comparing sample readings to those of negative (absence of compound) and positive (absence of enzyme) controls, the percent inhibition of enzymatic activity of the compounds was determined. A best-fit curve is fitted by a minimum of squares method. From this an IC50-value (expressed in μg/ml), resulting in 50% inhibition of enzymatic activity, was obtained.

[4] = system: Staphylococcus aureus NRS121; LZD-R; test: Antimicrobial spectrum, broth microdilution MIC; assay type: cell-based; details: S. aureus NRS121
Procedure: (§4) Minimum Inhibitory Concentrations (MICs) were determined in accordance with the Clinical and Laboratory Standards Institute (CLSI) methodology against aerobic bacteria (CLSI M07-A8) (see Clinical and Laboratory Standards Institute. 2009. Methods for dilution antimicrobial susceptibility tests for bacteria that grow aerobically. CLSI document M07-A8, Vol. 29, No. 2.) by the broth microdilution method with cation-adjusted Mueller-Hinton broth (CA-MHB) medium for the majority of organisms, except for Haemophilus influenza, where Haemophilis test medium (HTM) broth was used. Descriptions of the individual organisms can be found in the table. Where possible, ATCC standard strains were tested.
(§5) The inoculum density for the susceptibility testing was standardized to give a final inoculum of approximately 5×10^5 CFU/mL.
(§6) Stock solutions of the compounds were prepared in DMSO at concentrations of 1 mg/mL. Linezolid was prepared in DMSO at a concentration of 2 mg/mL. Stock solutions of all compounds were diluted into CA-MHB to give a range of two-fold dilutions, depending upon the sensitivity of the organism being tested.

[5] = system: Staphylococcus aureus ATCC 29213; reference strain MSSA; test: Antimicrobial spectrum, broth microdilution MIC; assay type: cell-based; details: S. aureus ATCC 29213
Procedure: as §4, §5, §6

[6] = system: Escherichia coli Tol C mutant; test: Antimicrobial spectrum, broth microdilution MIC; assay type: cell-based; details: E. coli tolC mutant
Procedure: as §4, §5, §6

[7] = system: Staphylococcus aureus ATCC 43300; reference strain MRSA; test: Antimicrobial spectrum, broth microdilution MIC; assay type: cell-based; details: S. aureus ATCC 43300
Procedure: as §4, §5, §6

[8] = system: Staphylococcus aureus NRS120; LZD-R; test: Antimicrobial spectrum, broth microdilution MIC; assay type: cell-based; details: S. aureus NRS120
Procedure: as §4, §5, §6

[9] = system: Staphylococcus aureus NRS119; LZD-R; test: Antimicrobial spectrum, broth microdilution MIC; assay type: cell-based; details: S. aureus NRS119
Procedure: as §4, §5, §6

[10] = system: Escherichia coli ATCC 25922; reference strain; test: Antimicrobial spectrum, broth microdilution MIC; assay type: cell-based; details: E. coli ATCC 25922
Procedure: as §4, §5, §6

Human HelaM cells = test: Cytotoxicity MTT assay (TOX HELAM); assay type: cell-based; details: 72 hours
Procedure: Cytotoxicity of the compounds was evaluated using the MTT assay. Human HelaM cells grown in 96-well plates were exposed to serial dilutions of the tested compounds (final volume of 0.2 ml) and incubated for 72 hours at 37° C. and 5% CO2. Inhibitors are typically varied over the range of 25 to 0.8 μM. The final DMSO concentration in the assay is 0.5%. MTT (3-(4,5-Dimethylthiazol-2-yl)-2,5-diphenyltetrazolium bromide, a tetrazole) was added and reduced to purple formazan only in living cells. Solubilization of the formazan crystals was achieved by adding 100 μl 2-propanol. Cell viability was determined by measuring the absorbance of the reduced formazan, giving a purple color, at 540 nm and 690 nm. The absorbance measured at 690 nm was automatically subtracted from the absorbance at 540 nm, to eliminate the effects of non-specific absorption. The percent cytotoxicity achieved by the compounds was calculated according to standard methods. Cytotoxicity is reported as CC50, the concentration that causes a 50% reduction in cell viability.
The results are depicted in the table D2 below (TOX HELAM).

[11] = system: Haemophilus influenzae ATCC 49247; reference strain; test: Antimicrobial spectrum, broth microdilution MIC; assay type: cell-based; details: H. influenza ATCC 49247
Procedure: as §4, §5, §6

[12] = p.o. 10 mg/kg vs i.v. 2.5 mg/kg

SMILES | STA + 10% HS (361.169) IC90 (S. aureus) | STA (361.159) IC90 [1] | AUC0-inf ([2]; i.v. 2.5 mg/kg) | Half life (t1/2) ([2]; i.v. 2.5 mg/kg) | Plasma clearance Cl ([2]; i.v. 2.5 mg/kg) | Vdz ([2]; i.v. 2.5 mg/kg) | C0 ([2]; i.v. 2.5 mg/kg) | FabI IC50 [3] | MIC90 [5] | MIC90 [6] | MIC90 [7] | MIC90 [10] | TOX HELAM (222.125) CC50 (Human HelaM cells) | MIC90 [11] | Oral bioavailability [2, 12] | Cmax ([2]; p.o. 10 mg/kg) | Tmax ([2]; p.o. 10 mg/kg) | other results
O=C1CCc2cc(/C=C/C(=O)N3CC4C=C(c5ccccc5)CC4C3)cnc2N1 (stereo not shown) [compound 1] | 0.17 µg/mL | 0.09 µg/mL | 7074 ng·h/mL | 2.9 h | 5.83 mL/min/kg | 1.5 L/kg | 2921 ng/mL | 0.32 µg/mL | 0.016 µg/mL (≈ 0.0415 µM) | ≦0.03 μg/ml | 0.016 µg/mL (≈ 0.0415 µM) | >32 µg/mL | >3.8547 µg/mL |  |  |  |  | Oral bioavailability ([2]; p.o. 5 mg/kg vs i.v. 2.5 mg/kg): 86%; AUC0-inf ([2]; p.o. 5 mg/kg): 12158 ng·h/mL; Cmax ([2]; p.o. 5 mg/kg): 1720 ng/mL; Half life (t1/2) ([2]; p.o. 5 mg/kg): 3.1 h; Tmax ([2]; p.o. 5 mg/kg): 2.0 h; MIC90 [4]: 0.016 µg/mL (≈ 0.0415 µM); MIC90 [8]: 0.016 µg/mL (≈ 0.0415 µM); MIC90 [9]: 0.03 µg/mL (≈ 0.0778 µM)
O=C1CCc2cc(/C=C/C(=O)N3C[C@@H]4CN(c5ccccc5)C[C@@H]4C3)cnc2N1 [compound 2] | 1.09 µg/mL | 1.02 µg/mL |  |  |  |  |  | 0.78 µg/mL | 0.25 µg/mL (≈ 0.644 µM) | 0.25 µg/mL (≈ 0.644 µM) | 0.5 µg/mL (≈ 1.29 µM) | >8 µg/mL | >19.4696 µg/mL | >8 µg/mL |  |  |  | 
O=C1CCc2cc(/C=C/C(=O)N3CC4C=C(c5ccsc5)CC4C3)cnc2N1 (stereo not shown) [compound 10] | 0.13 µg/mL | 0.08 µg/mL | 3992 ng·h/mL | 1.3 h | 10.7 mL/min/kg | 1.2 L/kg | 4154 ng/mL | 0.53 µg/mL | 0.015 µg/mL (≈ 0.0383 µM) | 0.125 µg/mL (≈ 0.319 µM) | 0.03 µg/mL (≈ 0.0766 µM) | >8 µg/mL | >3.915 µg/mL | >8 µg/mL | 81% | 3537 ng/mL | 1.0 h | AUC0-inf ([2]; p.o. 10 mg/kg): 12376 ng·h/mL; Half life (t1/2) ([2]; p.o. 10 mg/kg): 2.2 h
O=C1CCc2cc(/C=C/C(=O)N3CC4C=C(c5ccncc5)CC4C3)cnc2N1 (stereo not shown) [compound 12] | 0.53 µg/mL | 0.33 µg/mL | 1124 ng·h/mL | 1.1 h | 36.7 mL/min/kg | 3.7 L/kg | 2333 ng/mL | 0.44 µg/mL | 0.125 µg/mL (≈ 0.323 µM) | 0.25 µg/mL (≈ 0.647 µM) | 0.125 µg/mL (≈ 0.323 µM) | >8 µg/mL | >9.707 µg/mL | 1 µg/mL (≈ 2.59 µM) | 21% | 275 ng/mL | 1.0 h | AUC0-last ([2]; p.o. 10 mg/kg): 914 ng·h/mL
O=C1CCc2cc(/C=C/C(=O)N3CC4C=C(c5ccoc5)CC4C3)cnc2N1 (stereo not shown) [compound 22] | 0.25 µg/mL | 0.23 µg/mL |  |  |  |  |  | 0.58 µg/mL | 0.06 µg/mL (≈ 0.16 µM) | 1 µg/mL (≈ 2.66 µM) | 0.125 µg/mL (≈ 0.333 µM) | >8 µg/mL | >9.43 µg/mL | 4 µg/mL (≈ 10.7 µM) |  |  |  | 
